Assays:
Assay in all cases: relative viability (nuclei count vs DMSO), 5 days (fraction); higher = more cells survive
[1] = compound: COC1=CC=C(C=C1)CN2C=CC3=C2C=C(C=C3)C(=O)NO + NC(=O)Nc1cc(-c2cccc(F)c2)sc1C(=O)N[C@H]1CCCNC1 [AZD7762] (partner 0.2 µM)
Method in brief: (§1)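 Cells from lung cancer lines were seeded into 1536-well plates and, one day later, dosed by pin tool. Treatments were either a single drug or a fixed dose of an anchor drug with five library-drug doses (not always all listed) in √10 steps. After 5 days, nuclei were stained in a one-step fixation (final 0.05% Triton X-100, 1% formaldehyde, 1 ug/ml Hoechst) and counted on 4× images, and relative viability is the treated-to-vehicle nuclei ratio, as the median of duplicate plates.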

[2] = compound: COC1=CC=C(C=C1)CN2C=CC3=C2C=C(C=C3)C(=O)NO + O=C(c1cc(Cc2n[nH]c(=O)c3ccccc23)ccc1F)N1CCN(C(=O)C2CC2)CC1 [Olaparib] (partner 8 µM)
Method in brief: as §1

Veliparib + Foretinib = compound: C[C@]1(c2nc3c(C(N)=O)cccc3[nH]2)CCCN1 [Veliparib] + COc1cc2c(Oc3ccc(NC(=O)C4(C(=O)Nc5ccc(F)cc5)CC4)cc3F)ccnc2cc1OCCCN1CCOCC1 [Foretinib] (partner 0.25 µM)
Method in brief: as §1

Veliparib + Crizotinib = compound: C[C@]1(c2nc3c(C(N)=O)cccc3[nH]2)CCCN1 [Veliparib] + C[C@@H](Oc1cc(-c2cnn(C3CCNCC3)c2)cnc1N)c1c(Cl)ccc(F)c1Cl [Crizotinib] (partner 1 µM)
Method in brief: as §1

Cell Line | relative viability ([1]; first compound 0.08 µM) | relative viability ([1]; first compound 0.253 µM) | relative viability ([1]; first compound 0.8 µM) | relative viability ([1]; first compound 2.53 µM) | relative viability ([1]; first compound 8 µM) | relative viability ([2]; first compound 0.08 µM) | relative viability ([2]; first compound 0.253 µM) | relative viability ([2]; first compound 0.8 µM) | relative viability ([2]; first compound 2.53 µM) | relative viability ([2]; first compound 8 µM) | relative viability (Veliparib + Foretinib; first compound 0.2 µM) | relative viability (Veliparib + Foretinib; first compound 0.6325 µM) | relative viability (Veliparib + Foretinib; first compound 2 µM) | relative viability (Veliparib + Crizotinib; first compound 0.02 µM) | relative viability (Veliparib + Crizotinib; first compound 0.06325 µM) | relative viability (Veliparib + Crizotinib; first compound 0.2 µM) | relative viability (Veliparib + Crizotinib; first compound 0.6325 µM) | relative viability (Veliparib + Crizotinib; first compound 2 µM) | relative viability (Veliparib + Foretinib; first compound 0.02 µM) | relative viability (Veliparib + Foretinib; first compound 0.06325 µM)
201T | 0.561 | 0.676 | 0.528 | 0.642 | 0.586 | 0.846 | 0.833 | 0.881 | 0.844 | 0.832 | 1.2 | 1.03 | 1.14 | 1.03 | 0.978 | 0.964 | 0.992 | 0.997 | – | –
A549 | – | – | – | – | – | – | 0.38 | 0.39 | 0.337 | 0.252 | 0.962 | 0.807 | 0.963 | 0.768 | 0.699 | 0.792 | 0.61 | 0.891 | 1.07 | 0.878
A-427 | 0.544 | – | 0.671 | 0.696 | 0.476 | 0.251 | – | 0.71 | 0.711 | 0.724 | 0.991 | 0.981 | 1.11 | 0.884 | 0.837 | 0.864 | 0.83 | 0.836 | – | 0.936
ABC-1 | – | 0.692 | 0.871 | 0.796 | 0.756 | – | 0.745 | 0.73 | 0.734 | 0.87 | 1.12 | 0.961 | 1.15 | – | 0.987 | 0.846 | 0.953 | 0.962 | – | 0.858
BEN | 0.628 | 0.507 | 0.628 | 0.594 | 0.549 | 1.09 | 1.03 | 0.95 | 0.913 | 0.924 | 0.724 | 0.656 | 0.569 | 0.735 | 0.97 | 1.01 | 0.783 | 0.884 | 0.413 | 0.482
CAL-12T | 0.572 | 0.537 | 0.647 | 0.675 | 0.589 | 0.674 | 0.675 | 0.709 | 0.735 | 0.649 | 1.15 | 1.09 | 1.29 | 0.702 | 0.542 | 0.589 | 0.616 | 0.645 | 1.2 | 1.04
COR-L23 | – | – | – | – | – | 0.256 | 0.382 | 0.292 | 0.369 | 0.286 | 0.956 | 0.962 | 0.866 | 0.637 | 0.605 | 0.718 | 0.584 | 0.651 | 0.958 | 0.987
COR-L 105 | – | – | – | – | – | 0.558 | 0.743 | 0.808 | 0.715 | 0.706 | 1.1 | 1.07 | 0.943 | 0.881 | 0.583 | 0.921 | 0.786 | 0.696 | 1.17 | 1
Calu-6 | – | – | – | – | – | – | 0.544 | 0.556 | 0.602 | 0.51 | 0.852 | 0.84 | 0.969 | 0.817 | 0.735 | 0.882 | 0.691 | 0.796 | 0.967 | 0.82
ChaGo-K-1 | – | 0.861 | 0.881 | 0.766 | 0.762 | – | 0.459 | 0.424 | 0.409 | 0.324 | 0.845 | 0.784 | 0.923 | – | 1.05 | 1.08 | 1.06 | 1.09 | 0.874 | 0.873
EBC-1 | – | – | – | – | – | – | 0.656 | 0.748 | 0.695 | 0.633 | 0.12 | 0.12 | 0.108 | 0.194 | 0.231 | 0.213 | 0.186 | 0.233 | 0.0919 | 0.11
EKVX | – | 0.637 | 0.699 | 0.803 | 0.712 | – | 0.802 | 0.739 | 0.868 | 0.758 | 0.728 | 0.834 | 0.533 | 0.65 | 0.744 | 1.04 | 0.977 | 0.913 | 0.395 | 0.386
EMC-BAC-2 | 0.878 | – | 1.22 | 1.11 | 1 | 0.315 | – | 0.524 | 0.471 | 0.445 | 1.11 | 1.01 | 1.02 | 0.771 | 0.649 | 0.754 | 0.737 | 0.779 | 0.999 | 0.911
EPLC-272H | – | 0.253 | 0.196 | 0.229 | 0.185 | – | 0.716 | 0.981 | 0.916 | 0.686 | 0.677 | 0.659 | 0.878 | – | 0.798 | 0.855 | 0.941 | 0.904 | 0.743 | 0.609
H3255 | 0.925 | 0.774 | 0.831 | 0.843 | 0.744 | 0.549 | 0.482 | 0.605 | 0.579 | 0.532 | 0.811 | 0.78 | 0.795 | 0.898 | 0.904 | 0.814 | 0.829 | 0.969 | 0.739 | 0.462
HARA | – | 0.588 | 0.397 | 0.251 | 0.202 | – | 0.835 | 1.09 | 0.711 | 0.762 | 0.866 | 0.851 | 0.828 | 1.03 | 0.996 | 0.954 | 0.848 | 1.06 | 0.898 | 1.06
HCC-15 | 1.3 | 1.19 | 1.23 | 1.58 | 1.1 | 0.635 | 0.71 | 0.729 | 0.846 | 0.728 | 1.05 | 1.05 | 1.06 | 0.803 | 0.86 | 0.847 | 0.752 | 0.825 | – | 1.01
HCC-44 | 0.938 | 1.01 | 0.99 | 1.01 | 1.04 | 0.974 | 0.931 | 1.01 | 1 | 1.06 | – | – | – | 0.834 | 0.708 | 0.85 | 0.74 | 0.835 | – | –

From the supplement of paper PMC10307832
